In BindingDB's records for doi:10.1016/j.bmcl.2019.05.013 (Daiichi Sankyo, 2019):

Biological target: T1, Solute carrier family 2, facilitated glucose transporter member 4 (Rattus norvegicus, UniProt P19357)
T1 sequence (P19357 whole entry): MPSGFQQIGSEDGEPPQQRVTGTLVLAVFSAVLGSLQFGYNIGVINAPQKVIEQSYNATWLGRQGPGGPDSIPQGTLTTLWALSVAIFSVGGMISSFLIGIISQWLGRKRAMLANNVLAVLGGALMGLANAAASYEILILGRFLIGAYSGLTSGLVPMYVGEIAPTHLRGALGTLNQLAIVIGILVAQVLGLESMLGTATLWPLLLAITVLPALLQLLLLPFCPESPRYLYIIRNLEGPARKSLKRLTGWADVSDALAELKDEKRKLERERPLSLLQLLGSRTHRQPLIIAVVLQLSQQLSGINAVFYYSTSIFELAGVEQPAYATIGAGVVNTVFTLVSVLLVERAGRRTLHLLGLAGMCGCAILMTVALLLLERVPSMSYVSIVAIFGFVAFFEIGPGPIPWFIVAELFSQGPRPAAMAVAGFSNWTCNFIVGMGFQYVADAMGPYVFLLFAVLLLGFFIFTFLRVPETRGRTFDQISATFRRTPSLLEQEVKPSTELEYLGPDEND
Experiment: Induction of GLUT4 translocation in rat L6-GLUT4myc differentiated myotube cells after 20 mins by chemiluminescent method

Row | SMILES | EC50 [nM]
1 | COc1ccccc1-c1nnc(Nc2ccc(CC(N)=O)cc2)c2c1CCC2 | 4700
2 | NC(=O)Cc1ccc(Nc2nnc(-c3ccccc3OCc3cscn3)c3sccc23)c(F)c1 | 110
3 | COc1ccccc1-c1nnc(Nc2ccc(CC(N)=O)cc2F)c2ccsc12 | 650
4 | COCCOCCOc1ccccc1-c1nnc(Nc2ccc(CC(N)=O)cc2F)c2ccsc12 | 230
5 | CC(C)(C)OC(=O)NCCOCCOc1ccccc1-c1nnc(Nc2ccc(CC(N)=O)cc2F)c2ccsc12 | 24
6 | CC(C)(C)NC(=O)NCCOCCOc1ccccc1-c1nnc(Nc2ccc(CC(N)=O)cc2F)c2ccsc12 | 120
7 | NC(=O)Cc1ccc(Nc2nnc(-c3ccccc3OCc3ccccn3)c3sccc23)c(F)c1 | 140
8 | NC(=O)Cc1ccc(Nc2nnc(-c3ccccc3OCC3COCCO3)c3sccc23)c(F)c1 (stereo unspecified) | 76
9 | COCCOc1ccccc1-c1nnc(Nc2ccc(CC(N)=O)cc2F)c2ccsc12 | 140
10 | CC(C)(C)OC(=O)NCCCCOc1ccccc1-c1nnc(Nc2ccc(CC(N)=O)cc2F)c2ccsc12 | 47
11 | CCOC(=O)NCCCCOc1ccccc1-c1nnc(Nc2ccc(CC(N)=O)cc2F)c2ccsc12 | 230
